Measured values from patent US20260035339A1, “TETRAHYDRONAPHTHALENE DERIVATIVE” (ATRANSEN PHARMA LTD., priority 2022, published 2026).

How the values were obtained:
[1] = system: Human breast cancer cells MCF7; assay: BNCT-enhancing effect by L-BPA confinement using cultured cells (colony formation after neutron irradiation); format: cell-based; settings: MCF7 loaded with 100 μM L-[10B]BPA, not treated with Example 1-1; neutron rays 5 MW for 4 minutes
Method: Human breast cancer cells MCF7 were plate-cultured in an RPMI medium for 48 hours, then replaced with an RPMI medium containing 100 μM of L-[10B]BPA, and cultured for 15 minutes to allow the L-[10B]BPA to be taken up in the cells. After washing with HBSS, the cells were cultured in an RPMI medium for 60 minutes, and after further washing with HBSS, the cells were peeled off and stored in HBSS at room temperature for 1.5 hours ((−) in FIG. 3A). L-BPA was taken up in the cells, washed with HBSS and then cultured in an RPMI medium containing the compound of Example 1-1 (10 μM) obtained in the present invention for 60 minutes, and after further washing with HBSS, the cells were peeled off and stored in HBSS at room temperature for 1.5 hours ((+) in FIG. 3A). The cells were cultured in an RPMI medium containing no L-[10B]BPA for 15 minutes, and after washing with HBSS, the cells were peeled off and stored in HBSS at room temperature for 1.5 hours ((No BPA Hot control) in FIG. 3A). These three cell samples were irradiated with neutron rays (5 MW for 4 minutes). After irradiation, in order to measure viable cells, the cells were plate-cultured and the number of colonies generated after 2 weeks was measured. The number of viable cells was evaluated as surviving fraction (%) (FIG. 3A).

[2] = system: Mouse triple negative breast cancer cells 4T1 and mouse colorectal cancer cells CT26; assay: BNCT-enhancing effect using mouse allograft tumor model; format: in vivo, BALB/c mice; settings: neutron rays 5 MW for 30 minutes
Method: Mouse triple negative breast cancer cells 4T1 and mouse colorectal cancer cells CT26 were plate-cultured and then transplanted subcutaneously into the lower limbs of BALB/c mice. After 1 week, 400 mg/kg of L-[10B]BPA or a solvent as a control was intravenously administered through the tail vein. In Group 1, the compound of Example 1-45 was administered intravenously at a dose of 25 mg/kg after 1 hour and 1.5 hours from the administration of L-[10B]BPA. In Group 2, the solvent was administered instead of L-[10B]BPA, and after 1 hour and 1.5 hours, the compound of Example 1-45 obtained in the present invention was administered intravenously at a dose of 25 mg/kg. In Group 3, the solvent was administered intravenously instead of the compound of Example 1-45 after 1 hour and 1.5 hours from the administration of L-[10B]BPA. For Groups 1, 2, and 3, the lower limbs were irradiated with neutron rays under anesthesia after 2.5 hours from L-[10B]BPA administration or solvent administration as the control (5 MW for 30 minutes). The tumors were excised after 11 days from irradiation and the volumes thereof were compared.

[3] = biological target: T1, human LAT1 (Homo sapiens, UniProt Q01650); assay: Leucine uptake persistence inhibitory effect after compound removal in human-LAT1 highly expressing cell line; format: cell-based; settings: 20 μM compound for 30 minutes, removed, uptake measured 30 minutes later
T1 sequence (Q01650 whole entry): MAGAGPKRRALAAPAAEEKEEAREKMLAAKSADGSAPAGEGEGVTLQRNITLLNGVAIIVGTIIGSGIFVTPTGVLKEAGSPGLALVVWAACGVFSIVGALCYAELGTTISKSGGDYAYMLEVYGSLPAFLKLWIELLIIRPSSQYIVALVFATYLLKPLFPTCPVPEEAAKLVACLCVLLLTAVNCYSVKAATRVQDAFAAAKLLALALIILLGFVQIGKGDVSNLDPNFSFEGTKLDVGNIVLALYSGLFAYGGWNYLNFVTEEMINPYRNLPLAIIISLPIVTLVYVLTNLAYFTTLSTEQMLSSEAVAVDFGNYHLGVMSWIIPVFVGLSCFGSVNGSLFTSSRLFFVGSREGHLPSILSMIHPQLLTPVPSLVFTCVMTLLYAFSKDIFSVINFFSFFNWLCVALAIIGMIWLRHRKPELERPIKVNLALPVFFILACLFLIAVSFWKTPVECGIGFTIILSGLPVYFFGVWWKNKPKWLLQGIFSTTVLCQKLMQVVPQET
T1 sequence (P08195 102-630 partner): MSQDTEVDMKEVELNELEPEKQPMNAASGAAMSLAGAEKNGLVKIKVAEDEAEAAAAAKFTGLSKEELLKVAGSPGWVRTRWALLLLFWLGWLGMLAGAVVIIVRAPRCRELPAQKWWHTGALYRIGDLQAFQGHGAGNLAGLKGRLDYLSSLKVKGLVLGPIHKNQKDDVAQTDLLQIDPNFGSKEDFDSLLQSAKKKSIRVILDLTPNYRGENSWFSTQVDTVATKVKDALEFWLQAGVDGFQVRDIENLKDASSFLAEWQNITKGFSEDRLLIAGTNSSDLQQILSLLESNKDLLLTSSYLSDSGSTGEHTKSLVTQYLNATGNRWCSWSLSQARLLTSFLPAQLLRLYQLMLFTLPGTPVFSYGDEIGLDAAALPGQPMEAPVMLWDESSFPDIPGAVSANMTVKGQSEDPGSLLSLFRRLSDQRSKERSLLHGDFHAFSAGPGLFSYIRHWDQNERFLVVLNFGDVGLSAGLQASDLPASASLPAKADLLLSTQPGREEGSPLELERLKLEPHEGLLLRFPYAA
Method: The uptake of [^14C]L-leucine remaining after the compound of the present invention was caused to act in advance and removed in the human-LAT1 highly expressing cell line was examined. In the same manner as in the uptake inhibition test, the cell line was seeded in a 24-well plate, and an MEM (Minimum Essential Medium) medium containing 20 μM of the compound (racemic form) was added to the wells and allowed to act for 30 minutes. An MEM medium containing no compound was used as a control. After the compound was caused to act, the cells were washed 3 times with the MEM medium and cultured in the MEM medium for an additional 30 minutes. Thereafter, washing was performed 3 times with Na^+Free-HBSS, and 1 μM of [^14C]L-leucine dissolved in Na^+Free-HBSS was taken up for 1 minute. The cells were washed 3 times with ice-cooled Na^+Free-HBSS, and the amount of [^14C]L-leucine taken up in the cells was determined with a liquid scintillator. In the same manner as in other tests, the amount of protein in the cell fluid was measured, and the uptake amount of [^14C]L-leucine per 1 mg of protein in the cell fluid per minute was determined.

[4] = system: Mouse colorectal cancer-derived CT26 cells; assay: Cell proliferation inhibitory effect using mouse colorectal cancer cells (CCK-8 assay); format: cell-based; settings: 72 hours compound treatment, read-out: Evaluation of IC50 (proliferation inhibition rate of 50%)
Method: Mouse colorectal cancer-derived CT26 cells were adjusted to […], seeded in a 96-well plate at 1000 cells/well, and cultured in a 10% fetal bovine serum-added RPMI 1640 medium at 5% CO2 and 37° C. The culture medium was changed 24 hours after the start of the culture, and the medium containing the compound of Example was replaced to examine the action of the compound on cell proliferation. As the compound, a concentration of 0.01, 0.03, 0.1, 0.3, 1, 3, 10, or 30 μM was used. As a control, the cells were cultured in a medium containing no compound. The number of cells was evaluated by CCK-8 assay (Cell Counting Kit-8, DOJINDO LABORATORIES) 72 hours after the start of the compound treatment, and the compound concentration (IC50 value) giving a proliferation inhibition rate of 50% as compared with the control was calculated.

[5] = biological target: T1, human LAT1; assay: [14C]L-leucine uptake inhibition test using human-LAT1 stably expressing HEK293 cell line; format: cell-based; design: having full-length cDNA of human LAT1 or LAT2 inserted under a promoter of CMV; expressed in transfected cells; key to Assay Data: degree of [14C]L-leucine uptake inhibition compared with BCH: a test compound having a higher inhibitory effect than BCH is denoted by A; a test compound having the same inhibitory effect as BCH is denoted by B; a test compound having a lower inhibitory effect than BCH is denoted by C; settings: for Assay Data: degree of [14C]L-leucine uptake inhibition compared with BCH: compound (racemic form) and BCH at 0.1, 1.0, 10 μM, 1 μM [14C]L-leucine, 1 minute, Na+-free HBSS; for LAT1 inhibitory effect, compounds singled out (in words): same test as Table 1
Description: HEK293 cells stably expressing human LAT1 and LAT2 were produced, respectively.
A shuttle vector DNA (LAT1: pcDNA3.1(+) -hLAT1, LAT2: pcDNA3.1(+) -hLAT2; expression vector pcDNA3.1 (+) was produced by Invitrogen Corp.) having ampicillin and neomycin resistance markers and having full-length cDNA of human LAT1 or LAT2 inserted under a promoter of CMV (cytomegalovirus) was constructed. This vector was transfected into the HEK293 cells by a method using Lipofectamine (registered trademark) 2000 (Invitrogen Corp.) according to the manufacturer's instructions. Thereafter, stably expressing cell clones of transgene were selected by a limiting dilution method in the presence of 0.9 mg/mL of Geneticin (registered trademark), and among the obtained cell clones, cell clones having a high uptake of [^14C]L-leucine and maintaining stable expression even after 10 passages were obtained. These cells were used for evaluating affinity and selectivity for LAT1 and LAT2.
1-1. It has been confirmed that LAT1 is responsible for L-leucine uptake in the absence of sodium ions in the human-LAT1 stably expressing HEK293 cell line. The human-LAT1 stably expressing HEK293 cell line was seeded in a 24-well plate at 1×10^5 Cell/Well, and the [^14C]L-leucine uptake inhibition test using the compound was performed after 48 hours. After the medium was removed and the cells were washed with Hank's balanced salt solution (Na^+-free HBSS) not containing sodium ions, the cells were cultured in Na^+-free HBSS for 10 minutes. Thereafter, 1 μM of [^14C]L-leucine was taken up in Na^+-free HBSS in the presence of a test compound (0.1, 1.0, 10, 0 μM in each case), which is a racemic form, for 1 minute, and then the cells were washed three times with ice-cooled Na^+-free HBSS. To the well, 500 μL of 1 M NaOH was added, and after 30 minutes, the cells were lysed, and the cell lysate was collected. The amount of [^14C]L-leucine in the cell lysate was determined using a liquid scintillator. The amount of protein in the cell lysate was measured using BCA Assay Kit (Thermofisher Scientific), and the uptake amount of [^14C]L-leucine per 1 mg of protein in the cell per minute was calculated.
The degree of LAT1 inhibition of the compound obtained in the present invention was compared with BCH (BCH, 2-aminobicyclo-(2,2,1)-heptane-2-carboxylic acid), which is an existing LAT1 inhibitor. In the [^14C]L-leucine uptake inhibition test described above, the degrees of inhibition of [^14C]L-leucine uptake inhibition using the compound (racemic form) obtained in Examples and BCH (0.1, 1.0, 10, 0 μM for both) were compared. […] In the table, a test compound having a higher inhibitory effect than BCH is denoted by A, a test compound having the same inhibitory effect as BCH is denoted by B, and a test compound having a lower inhibitory effect than BCH is denoted by C.

sustained LAT1 inhibitory effect as compared with Example 1-1 [3]	IC50 [4]	Assay Data: degree of [14C]L-leucine uptake inhibition compared with BCH [5]	LAT1 inhibitory effect, compounds singled out (in words) [5]	Structure (SMILES)	cell death caused by neutron irradiation, L-[10B]BPA without compound treatment [1]	BNCT effect of L-[10B]BPA without compound (tumor volume 11 days after irradiation) ([2]; Group 3: 400 mg/kg L-[10B]BPA i.v., solvent instead of Example 1-45)	antitumor effect by neutron irradiation (tumor volume 11 days after irradiation) ([2]; Group 1: 400 mg/kg L-[10B]BPA i.v., then compound 25 mg/kg i.v. after 1 and 1.5 hours)
–	–	–	–	N[C@@H](Cc1ccc(B(O)O)cc1)C(=O)O [L-[10B]BPA, L-boronophenylalanine, reference compound]	about No BPA Hot control	no BNCT effect was obtained	–
more remarkable effect	≤ 900 nM	A	particularly remarkable effects	Cl.NC1(C(=O)O)CCc2ccc(Oc3ccccc3-c3cccc(F)c3F)cc2C1 (stereo not drawn) [Example 1-45, 2-Carboxy-7-((2′,3′-difluoro-[1,1′-biphenyl]-2-yl)oxy)-1,2,3,4-tetrahydronaphthalene-2-aminium chloride]	–	–	large antitumor effect
more remarkable effect	≤ 900 nM	A	–	Cl.NC1(C(=O)O)CCc2ccc(Oc3ccccc3-c3ccc(F)cc3F)cc2C1 (stereo not drawn) [Example 1-59, 2-Carboxy-7-((2′,4′-difluoro-[1,1′-biphenyl]-2-yl)oxy)-1,2,3,4-tetrahydronaphthalene-2-aminium chloride]	–	–	–
more remarkable effect	≤ 900 nM	A	particularly remarkable effects	Cc1cccc(-c2ccccc2Oc2ccc3c(c2)CC(N)(C(=O)O)CC3)c1Cl.Cl (stereo not drawn) [Example 1-57, 2-carboxy-7-((2′-Chloro-3′-methyl-[1,1′-biphenyl]-2-yl)oxy)-1,2,3,4-tetrahydronaphthalene-2-aminium chloride]	–	–	–
more remarkable effect	≤ 900 nM	A	–	Cl.NC1(C(=O)O)CCc2ccc(Oc3ccccc3-c3cccc(Cl)c3)cc2C1 (stereo not drawn) [Example 1-33, 2-carboxy-7-((3′-chloro-[1,1′-biphenyl]-2-yl)oxy)-1,2,3,4-tetrahydronaphthalene-2-aminium chloride]	–	–	–
more remarkable effect	≤ 900 nM	A	–	Cl.NC1(C(=O)O)CCc2ccc(Oc3ccccc3-c3cccc([N+](=O)[O-])c3)cc2C1 (stereo not drawn) [Example 1-42, 2-carboxy-7-((3′-nitro-[1,1′-biphenyl]-2-yl)oxy)-1,2,3,4-tetrahydronaphthalene-2-aminium chloride]	–	–	–
more remarkable effect	≤ 900 nM	A	–	Cl.NC1(C(=O)O)CCc2ccc(Oc3ccccc3-c3cccc(F)c3)cc2C1 (stereo not drawn) [Example 1-30, 2-carboxy-7-((3′-fluoro-[1,1′-biphenyl]-2-yl)oxy)-1,2,3,4-tetrahydronaphthalene-2-aminium chloride]	–	–	–
more remarkable effect	≤ 900 nM	A	–	C=Cc1cccc(-c2ccccc2Oc2ccc3c(c2)CC(N)(C(=O)O)CC3)c1.Cl (stereo not drawn) [Example 1-62, 2-carboxy-7-((3′-vinyl-[1,1′-biphenyl]-2-yl)oxy)-1,2,3,4-tetrahydronaphthalene-2-aminium chloride]	–	–	–
more remarkable effect	≤ 900 nM	A	particularly remarkable effects	Cl.NC1(C(=O)O)CCc2ccc(Oc3ccccc3-c3cccc(Cl)c3Cl)cc2C1 (stereo not drawn) [Example 1-53, 2-carboxy-7-((2′,3′-dichloro-[1,1′-biphenyl]-2-yl)oxy)-1,2,3,4-tetrahydronaphthalene-2-aminium chloride]	–	–	–
